Source: patent publication US10023519B2, “Cyclobutane containing carboxylic acid GPR120 modulators” (BRISTOL-MYERS SQUIBB COMPANY, priority 2014, dated 2018)

Assays:
C57BL/6 mice = assay: Acute Oral Glucose Tolerance Test; assay type: in vivo, mouse; settings: dosed at 30 mg/kg orally 60 min before glucose challenge (2 g/kg), AUC t=0-120 min compared to vehicle
Experimental: In Vivo GPR120 Assays 1) Acute Oral Glucose Tolerance Test
C57BL/6 mice were housed individually and fed a standard rodent chow diet. At approximately 11 weeks age, after a 5 h fast, these mice were orally treated with vehicle or test compounds 60 min before a glucose challenge (2 g/kg). Blood glucose levels were determined from tail bleeds taken at −60, 0, 15, 30, 60 and 120 min after the glucose challenge. […] This AUC for compound treatment is compared to vehicle treatment.

human GPR120 = human GPR120 (Homo sapiens (Human), UniProt Q5NUL3); assay: GPR120 pERK AlphaScreen SureFire Assay (human); assay type: cell-based; settings: CHO cells stably transfected with short form of human GPR120
Description: GPR120 activity was monitored by measuring phosphorylation of ERK (pERK), since G protein receptors are known to activate the ERK signaling cascade either directly and/or through recruitment of arrestin that serves as a scaffold for downstream signaling events.
GPR120 pERK AlphaScreen SureFire Assay
The human and mouse GPR120-mediated intracellular phosphorylated ERK assays were established using CHOA12 cells stably transfected with the short form of human or mouse GPR120 receptor. […] Cells were cryo preserved at a concentration of 2×10^7 cells/mL, in 90% Charcoal/Dextran FBS and 10% DMSO, and frozen in liquid nitrogen at a low passage number.
The flasks were placed in a tissue culture incubator overnight (37° C., 5% CO2). […] The next day, cells were serum starved in 30 μL of F-12 media without any serum or antibiotics for 2 hours at 37° C.
Cells were then stimulated with 50 nL of compound dilutions using ECHO liquid handler for 7 minutes at 37° C.
(§1) The lysis buffer was diluted 5-fold with water before use. […] The SureFire assay reagent mix was prepared by mixing 60 parts Reaction Buffer, 10 parts Activation Buffer, 1 part Donor Beads, 1 part Acceptor Beads (Perkin Elmer Cat. #TGRES10K). 3.5 μL/well of this reagent mix was manually added to the proxiplate with a multichannel pipettor. Plates were spun down at 1000 rpm for 2 minutes, followed by light-protected incubation at room temperature for 2 hours. The plates were read on the Alpha-technology compatible Envision multilabel plate reader using AlphaScreen protocol according to manufacturer's specifications. The agonist effect of compounds was expressed as 100× (average sample−average blank)/(average total−average blank) where sample is the luminescence activity in the presence of test compound, blank is equal to the luminescence activity in the presence of DMSO control and the total is signal induced by 50 μM linolenic acid as reference compound. Activation data for the test compound over a range of concentrations was plotted as percentage activation of the test compound (100%=maximum response). After correcting for background, EC50 values were determined.
The human and mouse GPR120-mediated intracellular phosphorylated ERK assays were also established using CHO-K1 cells stably transfected with the short form of human or mouse GPR120 receptor. […] Cells were cryo preserved at a concentration of 3×10^6 cells/mL, in 70% F-12, 20% Charcoal/Dextran FBS and 10% DMSO, and frozen in liquid nitrogen at a low passage number.
The flasks were placed in a tissue culture incubator overnight (37° C., 5% CO2).
Cells were then stimulated with 40 nL of compound dilutions using ECHO liquid handler for 7 minutes at 37° C.
as §1, with “compound.” for “compound. Activation data for the test compound over a range of concentrations was plotted as percentage activation of the test compound (100%=maximum response). After correcting for background, EC50 values were determined.”
Activation data for the test compound over a range of concentrations was plotted as percentage activation of the test compound (100%=maximum response). After correcting for background, EC50 values were determined.

human GPR120, sequence (Q5NUL3 whole entry): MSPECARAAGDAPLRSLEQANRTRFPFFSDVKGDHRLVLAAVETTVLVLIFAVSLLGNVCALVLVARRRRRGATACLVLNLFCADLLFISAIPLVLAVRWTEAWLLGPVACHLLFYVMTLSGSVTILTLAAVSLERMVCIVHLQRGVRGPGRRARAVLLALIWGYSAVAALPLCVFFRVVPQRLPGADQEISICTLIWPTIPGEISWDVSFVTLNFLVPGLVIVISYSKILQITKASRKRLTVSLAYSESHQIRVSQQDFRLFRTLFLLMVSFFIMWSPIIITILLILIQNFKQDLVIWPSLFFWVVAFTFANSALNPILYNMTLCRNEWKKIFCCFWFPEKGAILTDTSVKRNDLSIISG

| SMILES | reduced glucose AUC (C57BL/6 mice) [%] | EC50 (human GPR120) [µM] |
| --- | --- | --- |
| O=C(O)CO[C@H]1C[C@@H](c2ccc(-c3cc(Oc4ccccc4)ccc3F)cc2)C1 [Example 1, Cis-2-(-3-(2′-fluoro-5′-phenoxy-[1,1′-biphenyl]-4-yl)cyclobutoxy)acetic acid] | 42 | 0.17 |
| CC(C)Oc1ccc(F)c(-c2ccc([C@H]3C[C@@H](OCC(=O)O)C3)cc2)c1 [Example 2, Cis-2-(3-(2′-fluoro-5′-isopropoxy-[1,1′-biphenyl]-4-yl)cyclobutoxy)acetic acid] |  | 0.53 |
| O=C(O)CO[C@H]1C[C@@H](c2ccc(-c3cc(OC(F)(F)F)ccc3Cl)cc2)C1 [Example 8, Cis-2-(3-(2′-chloro-5′-(trifluoromethoxy)-[1,1′-biphenyl]-4-yl)cyclobutoxy)acetic acid] |  | 0.9 |
